Source: US12376590B2, “Compositions comprising pyridine carboxylate herbicides and azole carboxylate safeners” (Corteva Agriscience LLC, priority 2018, dated 2025)

Experiments:
Experiment in all cases: Greenhouse postemergence herbicidal safening trial, visual injury after 20-22 d
[1] = system: Chinese sprangletop (LEFCH); assay type: in vivo, Leptochloa chinensis
Text: (§1) Greenhouse Trial Methodology—Evaluation of Postemergence Herbicidal Safening in Crops
(§2) Seeds of the desired test plant species were planted in a 90:10% v/v (volume/volume) mixture of PRO-MIX® BX (Premier Tech Horticulture, Quakertown, PA, USA) and PROFILE® GREENS GRADE™ (Profile Products LLC, Buffalo Grove, IL, USA) planting mixture, which typically has a pH of 5.2 to 6.2 and an organic matter content of at least 50 percent, in plastic pots with a surface area of 103.2 square centimeters (cm^2). When required to ensure good germination and healthy plants, a fungicide treatment and/or other chemical or physical treatment was applied. The plants were grown for 7-36 days (d) in a greenhouse with an approximate 14-hour (h) photo-period which was maintained at about 23° C. during the day and 22° C. during the night. Nutrients and water were added on a regular basis and supplemental lighting was provided with overhead metal halide 1000-Watt lamps as necessary. The plants were employed for testing when they reached the second or third true leaf stage.
(§3) Emulsifiable concentrates of each of each pyridine carboxylate herbicide (Compound A or Compound B) were prepared at 100 grams acid equivalent per liter (g ae/L). An aliquot of each emulsifiable concentrate was placed in a 25 mL glass vial and diluted with an aqueous mixture of 1.25% (v/v) ACTIROB® B esterified rapeseed oil (Bayer Crop Science, Research Triangle Park, NC, USA) or MSO® Concentrate with LECI-TECH® methylated soybean oil (Loveland Products, Loveland, CO, USA) to obtain concentrated stock solutions at the highest application rate for each herbicide, based upon a 12 milliliter (mL) application volume at a rate of 187 liters per hectare (L/ha). The concentrated stock solutions were further diluted with an aqueous mixture of 1.25% v/v ACTIROB® B or MSO® Concentrate with LECI-TECH® to obtain stock solutions at reduced application rates for each herbicide. Spray solutions of the herbicide combinations (Compound A or Compound B plus safener) were prepared by adding weighed amounts or aliquots of the azole carboxylate safener to the stock solutions of Compound A or Compound B to form 12-mL spray solutions in two-way combinations.
(§4) The spray solutions were applied to the plant material with an overhead Mandel track sprayer equipped with 8002E nozzles calibrated to deliver 187 L/ha over an application area of 0.503 square meters (m^2) at a spray height of 18 inches (43 centimeters (cm)) above the average plant canopy. Control plants were sprayed in the same manner with the solvent blank. All herbicide (component a) application rates are given as “g ae/ha” and all safener (component b) application rates are given as “g ai/ha.”
(§5) The treated plants and control plants were placed in a greenhouse as described above and watered by sub-irrigation to prevent wash-off of the test compounds. After 20-22 d, the condition of the test plants as compared with that of the control plants was determined visually and scored on a scale of 0 to 100 percent where 0 corresponds to no injury and 100 corresponds to complete kill.

wild oat (AVEFA) = assay type: in vivo, Avena fatua
Text: as §1, §2, §3, §4, §5

wild pansy (VIOTR) = assay type: in vivo, Viola tricolor
Text: as §1, §2, §3, §4, §5

[2] = system: ivyleaf morningglory (IPOHE); assay type: in vivo, Ipomoea hederacea
Text: as §1, §2, §3, §4, §5

[3] = system: common lambsquarters (CHEAL); assay type: in vivo, Chenopodium album L.
Text: as §1, §2, §3, §4, §5

Italian ryegrass (LOLMU) = assay type: in vivo, Lolium multiflorum
Text: as §1, §2, §3, §4, §5

wild chamomile (MATCH) = assay type: in vivo, Matricaria chamomilla; settings: applied alone
Text: as §1, §2, §3, §4, §5

soybean (GLXMA) = assay type: in vivo, Glycine max
Text: as §1, §2, §3, §4, §5

common rice (ORYSA) = assay type: in vivo, Oryza sativa
Text: as §1, §2, §3, §4, §5

nutsedge (CYPES) = assay type: in vivo, Cyperus esculentus
Text: as §1, §2, §3, §4, §5

pigweed (AMARE) = assay type: in vivo, Amaranthus retroflexus
Text: as §1, §2, §3, §4, §5

spring wheat (TRZAS) = assay type: in vivo, Triticum aestivum; settings: applied alone
Text: as §1, §2, §3, §4, §5

winter wheat (TRZAW) = assay type: in vivo, Triticum aestivum
Text: as §1, §2, §3, §4, §5

Russian thistle (SASKR) = assay type: in vivo, Salsola kali; settings: applied alone
Text: as §1, §2, §3, §4, §5

Canada horseweed (ERICA) = assay type: in vivo, Erigeron canadensis
Text: as §1, §2, §3, §4, §5

velvetleaf (ABUTH) = assay type: in vivo, Abutilon theophrasti
Text: as §1, §2, §3, §4, §5

Measured: % visual injury Ob

CCOC(=O)C1=NN(c2ccc(Cl)cc2Cl)C(C)(C(=O)OCC)C1 (centres unmarked) [Mefenpyr-diethyl, mefenpyr-diethyl]
0%: [1]; Mefenpyr-diethyl 20 g/ha | [1]; Mefenpyr-diethyl 40 g/ha | [1]; Mefenpyr-diethyl 80 g/ha | wild oat (AVEFA); Mefenpyr-diethyl 20 g/ha | wild oat (AVEFA); Mefenpyr-diethyl 40 g/ha | wild oat (AVEFA); Mefenpyr-diethyl 80 g/ha | wild pansy (VIOTR); Mefenpyr-diethyl 20 g/ha | wild pansy (VIOTR); Mefenpyr-diethyl 40 g/ha | wild pansy (VIOTR); Mefenpyr-diethyl 80 g/ha | [2]; Mefenpyr-diethyl 20 g/ha | [2]; Mefenpyr-diethyl 40 g/ha | [2]; Mefenpyr-diethyl 80 g/ha | [3]; Mefenpyr-diethyl 20 g/ha | [3]; Mefenpyr-diethyl 40 g/ha | [3]; Mefenpyr-diethyl 80 g/ha | Italian ryegrass (LOLMU); Mefenpyr-diethyl 20 g/ha | Italian ryegrass (LOLMU); Mefenpyr-diethyl 40 g/ha | Italian ryegrass (LOLMU); Mefenpyr-diethyl 80 g/ha | wild chamomile (MATCH); 10 g/ha | wild chamomile (MATCH); 20 g/ha | wild chamomile (MATCH); 40 g/ha | soybean (GLXMA); Mefenpyr-diethyl 20 g/ha | soybean (GLXMA); Mefenpyr-diethyl 40 g/ha | soybean (GLXMA); Mefenpyr-diethyl 80 g/ha | common rice (ORYSA); Mefenpyr-diethyl 20 g/ha | common rice (ORYSA); Mefenpyr-diethyl 40 g/ha | common rice (ORYSA); Mefenpyr-diethyl 80 g/ha | nutsedge (CYPES); Mefenpyr-diethyl 20 g/ha | nutsedge (CYPES); Mefenpyr-diethyl 40 g/ha | nutsedge (CYPES); Mefenpyr-diethyl 80 g/ha | nutsedge (CYPES); applied alone, 20 g/ha | nutsedge (CYPES); applied alone, 40 g/ha | nutsedge (CYPES); applied alone, 80 g/ha | nutsedge (CYPES); applied alone, 120 g/ha | pigweed (AMARE); Mefenpyr-diethyl 20 g/ha | pigweed (AMARE); Mefenpyr-diethyl 40 g/ha | pigweed (AMARE); Mefenpyr-diethyl 80 g/ha | pigweed (AMARE); applied alone, 20 g/ha | pigweed (AMARE); applied alone, 40 g/ha | pigweed (AMARE); applied alone, 80 g/ha | pigweed (AMARE); applied alone, 120 g/ha | spring wheat (TRZAS); 10 g/ha | spring wheat (TRZAS); 20 g/ha | spring wheat (TRZAS); 40 g/ha | spring wheat (TRZAS); 80 g/ha | spring wheat (TRZAS); 120 g/ha | winter wheat (TRZAW); Mefenpyr-diethyl 20 g/ha | winter wheat (TRZAW); Mefenpyr-diethyl 40 g/ha | winter wheat (TRZAW); Mefenpyr-diethyl 80 g/ha | winter wheat (TRZAW); applied alone, 20 g/ha | winter wheat (TRZAW); applied alone, 40 g/ha | winter wheat (TRZAW); applied alone, 80 g/ha | winter wheat (TRZAW); applied alone, 120 g/ha | Russian thistle (SASKR); 10 g/ha | Russian thistle (SASKR); 20 g/ha | Russian thistle (SASKR); 40 g/ha | Canada horseweed (ERICA); Mefenpyr-diethyl 20 g/ha | Canada horseweed (ERICA); Mefenpyr-diethyl 40 g/ha | Canada horseweed (ERICA); Mefenpyr-diethyl 80 g/ha | velvetleaf (ABUTH); Mefenpyr-diethyl 20 g/ha | velvetleaf (ABUTH); Mefenpyr-diethyl 40 g/ha | velvetleaf (ABUTH); Mefenpyr-diethyl 80 g/ha
